Experimental findings from patent US20250361217A1, “FATTY ACID COMPOUNDS” (University of Pittsburgh - Of the Commonwealth System of …, priority 2022, published 2025) are described below.

The assay deals with ACC. The experiment in a line: Thermal shift assay of liver proteins, ACC. In kind it is binding, mice. How it is done: The liver samples (50 mg) were homogenized and vortexed in ice-cold RIPA buffer containing phosphatase (Fisher Scientific, #PIA32957) and protease (Fisher Scientific, #PIA32953) inhibitor cocktails. Protein concentration was determined using a […] (Pierce). Protein lysates were mixed with LDS Sample Buffer (1:4) and heated for 2 min at 95° C. The lysates were then loaded and electrophoresed on a 10% Tris-Glycine eXtended (BioRad, Criterion #5671034). The proteins were electrophoretically transferred to a PVDF membrane (BioRad, #1620177), and the transfer was confirmed by staining the membrane with 0.1% Ponceau S solution (Sigma-Aldrich, #6226-79-5). The membrane was then blocked for 90 min at RT with 5% nonfat dry milk (LabScientific) or 5% BSA (MilliporeSigma) in TBS-T (tris buffered saline+0.1% Tween 20 [Thermo Fisher Scientific]). […] Quantitative densitometric analysis was performed using Image Lab software (Bio-Rad).
Thermal Shift Assay Proteins were extracted from the liver powder (50 mg) with 1 mL of phosphate-buffered saline (PBS—Gibco, Paisley, UK) containing phosphatase (Fisher Scientific, #PIA32957) and protease (Fisher Scientific, #PIA32953) inhibitors. […] The Supernatants were transferred to new tubes and analyzed by western blot as described above.

The structures appear in SMILES notation.

In the case of `CCCc1ccc(CCCCCCCCCC(C)(C)C(=O)O)o1` [11U3-2M, 2,2-Dimethyl-11-(5-propylfuran-2-yl)undecanoic acid], under “full cohorts, HFD+11U3-2M, higher temperature (52, 53.5, 55° C.)”, the ACC thermal stability result is “greatly increased”. Moreover, the “ACC thermal stability compared to veh” value (one mouse per group, 52, 53.5 and 55° C.) is “higher stability”.
